Measurements taken from ChEMBL document CHEMBL4507291 (2021).

Columns and labels:
[1] = biological target: B2 bradykinin receptor (Homo sapiens) (UniProt P30411); details: Compound concentration 10.0 uM
[2] = biological target: Receptor-type tyrosine-protein kinase FLT3 (Homo sapiens) (UniProt P36888); assay: FLT3 Kinase screen; details: Compound concentration 1.0 uM
[3] = biological target: Cyclin-dependent kinase 1/cyclin B (Homo sapiens) (UniProt P06493+P14635+Q8WWL7+O95067); assay: CDK1/cyclin B Kinase screen; format: protein-complex assay; details: Compound concentration 1.0 uM
[4] = biological target: Histamine H2 receptor (Homo sapiens) (UniProt P25021); details: Compound concentration 10.0 uM
Sequence of Histamine H2 receptor (Homo sapiens) (P25021 whole entry): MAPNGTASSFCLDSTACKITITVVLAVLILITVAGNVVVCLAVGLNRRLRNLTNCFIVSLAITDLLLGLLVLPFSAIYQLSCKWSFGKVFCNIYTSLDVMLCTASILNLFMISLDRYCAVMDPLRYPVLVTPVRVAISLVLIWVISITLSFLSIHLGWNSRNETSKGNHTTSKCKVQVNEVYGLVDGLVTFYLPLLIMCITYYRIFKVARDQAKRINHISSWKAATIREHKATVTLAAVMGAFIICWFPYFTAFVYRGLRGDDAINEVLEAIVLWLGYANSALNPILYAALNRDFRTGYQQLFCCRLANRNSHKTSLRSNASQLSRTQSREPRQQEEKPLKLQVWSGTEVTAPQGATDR

[5] = biological target: Receptor tyrosine-protein kinase erbB-4 (Homo sapiens) (UniProt Q15303); assay: ERBB4 (HER4) Kinase screen; details: Compound concentration 1.0 uM
[6] = biological target: Serine/threonine-protein kinase MARK2 (Homo sapiens) (UniProt Q7KZI7); assay: MARK2 Kinase screen; details: Compound concentration 1.0 uM
Sequence of Serine/threonine-protein kinase MARK2 (Homo sapiens) (Q7KZI7 whole entry): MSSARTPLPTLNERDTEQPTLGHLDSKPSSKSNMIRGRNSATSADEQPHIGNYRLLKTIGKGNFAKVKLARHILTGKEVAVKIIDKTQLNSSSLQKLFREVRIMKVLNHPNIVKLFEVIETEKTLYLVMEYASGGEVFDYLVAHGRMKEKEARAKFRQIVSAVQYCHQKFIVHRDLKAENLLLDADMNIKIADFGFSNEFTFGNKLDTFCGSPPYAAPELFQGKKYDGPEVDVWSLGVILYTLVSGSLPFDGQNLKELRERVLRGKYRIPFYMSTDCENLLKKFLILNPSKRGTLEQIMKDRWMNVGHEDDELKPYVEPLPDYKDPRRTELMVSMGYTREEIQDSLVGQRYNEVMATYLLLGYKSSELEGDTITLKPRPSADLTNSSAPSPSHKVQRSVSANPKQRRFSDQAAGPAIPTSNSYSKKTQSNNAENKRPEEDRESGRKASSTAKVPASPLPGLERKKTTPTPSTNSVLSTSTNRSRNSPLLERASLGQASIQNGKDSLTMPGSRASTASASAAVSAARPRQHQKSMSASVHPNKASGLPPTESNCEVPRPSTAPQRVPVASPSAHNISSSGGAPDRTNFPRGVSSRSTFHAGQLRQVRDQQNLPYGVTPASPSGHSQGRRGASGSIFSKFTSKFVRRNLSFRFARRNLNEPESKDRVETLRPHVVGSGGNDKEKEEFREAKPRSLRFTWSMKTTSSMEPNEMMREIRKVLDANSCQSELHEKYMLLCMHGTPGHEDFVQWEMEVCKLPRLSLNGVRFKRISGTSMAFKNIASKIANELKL

[7] = biological target: MAP kinase-interacting serine/threonine-protein kinase 2 (Homo sapiens) (UniProt Q9HBH9); assay: MKNK2 (MNK2) Kinase screen; details: Compound concentration 1.0 uM
Sequence of MAP kinase-interacting serine/threonine-protein kinase 2 (Homo sapiens) (Q9HBH9 whole entry, looked up): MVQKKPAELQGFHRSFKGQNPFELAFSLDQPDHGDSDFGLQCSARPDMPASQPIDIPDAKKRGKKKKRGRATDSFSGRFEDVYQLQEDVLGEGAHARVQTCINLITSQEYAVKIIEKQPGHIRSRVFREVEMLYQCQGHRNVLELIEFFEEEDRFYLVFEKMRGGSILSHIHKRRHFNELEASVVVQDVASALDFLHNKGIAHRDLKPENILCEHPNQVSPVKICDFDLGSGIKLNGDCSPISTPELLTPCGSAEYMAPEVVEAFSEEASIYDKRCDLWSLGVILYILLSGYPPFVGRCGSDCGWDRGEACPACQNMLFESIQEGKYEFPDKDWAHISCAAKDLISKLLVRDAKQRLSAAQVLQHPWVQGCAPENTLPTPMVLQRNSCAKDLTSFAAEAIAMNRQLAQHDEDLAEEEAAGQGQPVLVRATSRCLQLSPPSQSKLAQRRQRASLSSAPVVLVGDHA

[8] = biological target: Insulin receptor (Homo sapiens) (UniProt P06213); assay: Protein Tyrosine Kinase, Insulin Receptor Eurofins-Panlabs enzyme assay; design: substrate with concentration; details: Compound concentration 10.0 uM
[9] = biological target: Prostacyclin receptor (Homo sapiens) (UniProt P43119); assay: Prostanoid IP Eurofins-Panlabs radioligand binding assay; details: Compound concentration 10.0 uM
Sequence of Prostacyclin receptor (Homo sapiens) (P43119 whole entry): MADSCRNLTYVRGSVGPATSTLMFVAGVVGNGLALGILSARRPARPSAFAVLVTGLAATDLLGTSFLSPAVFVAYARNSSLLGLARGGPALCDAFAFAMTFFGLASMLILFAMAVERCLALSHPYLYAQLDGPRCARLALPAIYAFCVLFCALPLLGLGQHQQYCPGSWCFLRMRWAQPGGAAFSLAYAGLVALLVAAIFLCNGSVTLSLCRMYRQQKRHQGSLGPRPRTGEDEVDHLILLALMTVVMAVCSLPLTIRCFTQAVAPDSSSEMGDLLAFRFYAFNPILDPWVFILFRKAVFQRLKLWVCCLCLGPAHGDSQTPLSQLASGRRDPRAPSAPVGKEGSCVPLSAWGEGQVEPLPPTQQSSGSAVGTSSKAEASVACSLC

[10] = biological target: Melanocortin receptor 4 (Homo sapiens) (UniProt P32245); assay: Inhibition of Melanocortin MC4 at 10 µM in the Eurofins-Panlabs radioligand binding assay (Eurofins_assay_251350); design: ligand concentration 0.02 nM; details: Compound concentration 10.0 uM
[11] = biological target: Cathepsin G (Homo sapiens) (UniProt P08311); assay: Inhibition of Peptidase, CTSG (Cathepsin G) at 10 µM in the Eurofins-Panlabs enzyme assay (Eurofins_assay_112510); design: substrate with concentration; details: Compound concentration 10.0 uM
Sequence of Cathepsin G (Homo sapiens) (P08311 whole entry): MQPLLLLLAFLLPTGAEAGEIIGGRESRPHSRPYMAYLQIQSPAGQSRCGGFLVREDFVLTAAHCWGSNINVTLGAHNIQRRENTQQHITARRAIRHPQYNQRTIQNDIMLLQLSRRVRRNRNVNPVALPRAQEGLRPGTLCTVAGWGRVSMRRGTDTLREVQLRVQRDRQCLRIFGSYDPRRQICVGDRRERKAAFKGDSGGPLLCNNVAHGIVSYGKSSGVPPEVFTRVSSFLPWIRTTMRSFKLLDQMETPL

[12] = biological target: Vascular endothelial growth factor receptor 1 (Homo sapiens) (UniProt P17948); assay: FLT1 (VEGFR1) Kinase screen; details: Compound concentration 1.0 uM
Sequence of Vascular endothelial growth factor receptor 1 (Homo sapiens) (P17948 whole entry): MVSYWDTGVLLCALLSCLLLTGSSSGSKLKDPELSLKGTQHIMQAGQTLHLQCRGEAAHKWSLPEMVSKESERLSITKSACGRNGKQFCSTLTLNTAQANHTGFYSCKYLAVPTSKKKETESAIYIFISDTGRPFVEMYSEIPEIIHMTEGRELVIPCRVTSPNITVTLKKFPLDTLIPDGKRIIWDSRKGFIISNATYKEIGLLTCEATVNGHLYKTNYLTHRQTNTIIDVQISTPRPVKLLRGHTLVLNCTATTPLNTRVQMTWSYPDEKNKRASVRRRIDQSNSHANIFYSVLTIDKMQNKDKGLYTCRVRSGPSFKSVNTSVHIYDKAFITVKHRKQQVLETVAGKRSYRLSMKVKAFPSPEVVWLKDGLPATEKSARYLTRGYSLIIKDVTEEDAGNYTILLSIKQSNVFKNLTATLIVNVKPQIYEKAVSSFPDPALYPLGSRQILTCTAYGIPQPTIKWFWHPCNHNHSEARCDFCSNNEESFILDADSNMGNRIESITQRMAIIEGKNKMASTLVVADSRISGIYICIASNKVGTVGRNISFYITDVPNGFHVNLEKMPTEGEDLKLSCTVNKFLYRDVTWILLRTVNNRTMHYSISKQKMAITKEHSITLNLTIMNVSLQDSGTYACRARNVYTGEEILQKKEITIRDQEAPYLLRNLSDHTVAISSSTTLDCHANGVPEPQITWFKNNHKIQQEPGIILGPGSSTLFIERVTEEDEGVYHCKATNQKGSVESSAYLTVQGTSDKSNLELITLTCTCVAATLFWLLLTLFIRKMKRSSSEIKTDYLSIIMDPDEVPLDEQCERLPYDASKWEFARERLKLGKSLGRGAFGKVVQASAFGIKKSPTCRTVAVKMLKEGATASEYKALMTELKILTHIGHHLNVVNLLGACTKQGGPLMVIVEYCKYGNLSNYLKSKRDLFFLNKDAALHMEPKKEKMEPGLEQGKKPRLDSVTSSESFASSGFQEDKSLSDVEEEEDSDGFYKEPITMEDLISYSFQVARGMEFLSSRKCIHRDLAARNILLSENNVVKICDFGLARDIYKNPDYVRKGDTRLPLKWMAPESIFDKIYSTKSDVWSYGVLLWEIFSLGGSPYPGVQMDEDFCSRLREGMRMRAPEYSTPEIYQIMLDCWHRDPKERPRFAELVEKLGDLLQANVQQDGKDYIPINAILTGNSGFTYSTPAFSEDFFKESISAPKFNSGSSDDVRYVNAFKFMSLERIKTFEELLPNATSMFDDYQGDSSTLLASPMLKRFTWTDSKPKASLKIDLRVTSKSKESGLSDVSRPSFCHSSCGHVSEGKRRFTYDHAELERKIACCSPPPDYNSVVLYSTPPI

[13] = biological target: B1 bradykinin receptor (Homo sapiens) (UniProt P46663); assay: Inhibition of Bradykinin B1 at 10 µM in the Eurofins-Panlabs radioligand binding assay (Eurofins_assay_212510); details: Compound concentration 10.0 uM
Sequence of B1 bradykinin receptor (Homo sapiens) (P46663 whole entry): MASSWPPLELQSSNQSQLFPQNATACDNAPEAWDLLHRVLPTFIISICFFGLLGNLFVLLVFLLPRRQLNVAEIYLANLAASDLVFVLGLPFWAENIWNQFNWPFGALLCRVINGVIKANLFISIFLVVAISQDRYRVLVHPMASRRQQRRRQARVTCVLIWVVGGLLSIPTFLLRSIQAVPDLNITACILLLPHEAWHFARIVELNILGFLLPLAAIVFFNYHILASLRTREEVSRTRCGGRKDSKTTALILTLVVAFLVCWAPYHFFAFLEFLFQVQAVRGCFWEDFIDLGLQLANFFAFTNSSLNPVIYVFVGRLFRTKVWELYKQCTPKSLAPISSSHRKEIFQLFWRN

[14] = test system: Epidermal growth factor receptor (Homo sapiens), P00533 [L858R]; assay: EGFR (ErbB1) L858R Kinase screen; details: Compound concentration 1.0 uM
[15] = biological target: T1, Mitogen-activated protein kinase kinase kinase 3 (Homo sapiens) (UniProt Q99759); assay: MAP3K3 (MEKK3) Kinase screen; details: Compound concentration 1.0 uM
T1 sequence (whole entry): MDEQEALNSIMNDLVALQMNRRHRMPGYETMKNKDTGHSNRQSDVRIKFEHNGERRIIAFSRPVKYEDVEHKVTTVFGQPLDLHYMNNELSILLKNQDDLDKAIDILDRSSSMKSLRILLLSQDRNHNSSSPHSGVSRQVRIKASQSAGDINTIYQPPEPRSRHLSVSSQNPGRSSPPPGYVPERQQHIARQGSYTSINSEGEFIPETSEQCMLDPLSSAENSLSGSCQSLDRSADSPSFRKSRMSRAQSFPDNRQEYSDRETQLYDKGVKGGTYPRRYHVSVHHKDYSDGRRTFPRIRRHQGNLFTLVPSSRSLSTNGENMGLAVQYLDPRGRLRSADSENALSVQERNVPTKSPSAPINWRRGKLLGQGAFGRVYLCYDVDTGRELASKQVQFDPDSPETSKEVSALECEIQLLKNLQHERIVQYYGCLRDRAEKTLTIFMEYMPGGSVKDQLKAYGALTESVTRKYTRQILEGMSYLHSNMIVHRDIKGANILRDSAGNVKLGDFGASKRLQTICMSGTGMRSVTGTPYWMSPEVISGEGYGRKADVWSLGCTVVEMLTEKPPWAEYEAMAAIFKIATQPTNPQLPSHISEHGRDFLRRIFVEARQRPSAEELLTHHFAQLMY

[16] = biological target: Vascular endothelial growth factor receptor 3 (Homo sapiens) (UniProt P35916); assay: FLT4 (VEGFR3) Kinase screen; details: Compound concentration 1.0 uM

Measured: inhibition

Sequence of Receptor-type tyrosine-protein kinase FLT3 (Homo sapiens) (P36888 whole entry): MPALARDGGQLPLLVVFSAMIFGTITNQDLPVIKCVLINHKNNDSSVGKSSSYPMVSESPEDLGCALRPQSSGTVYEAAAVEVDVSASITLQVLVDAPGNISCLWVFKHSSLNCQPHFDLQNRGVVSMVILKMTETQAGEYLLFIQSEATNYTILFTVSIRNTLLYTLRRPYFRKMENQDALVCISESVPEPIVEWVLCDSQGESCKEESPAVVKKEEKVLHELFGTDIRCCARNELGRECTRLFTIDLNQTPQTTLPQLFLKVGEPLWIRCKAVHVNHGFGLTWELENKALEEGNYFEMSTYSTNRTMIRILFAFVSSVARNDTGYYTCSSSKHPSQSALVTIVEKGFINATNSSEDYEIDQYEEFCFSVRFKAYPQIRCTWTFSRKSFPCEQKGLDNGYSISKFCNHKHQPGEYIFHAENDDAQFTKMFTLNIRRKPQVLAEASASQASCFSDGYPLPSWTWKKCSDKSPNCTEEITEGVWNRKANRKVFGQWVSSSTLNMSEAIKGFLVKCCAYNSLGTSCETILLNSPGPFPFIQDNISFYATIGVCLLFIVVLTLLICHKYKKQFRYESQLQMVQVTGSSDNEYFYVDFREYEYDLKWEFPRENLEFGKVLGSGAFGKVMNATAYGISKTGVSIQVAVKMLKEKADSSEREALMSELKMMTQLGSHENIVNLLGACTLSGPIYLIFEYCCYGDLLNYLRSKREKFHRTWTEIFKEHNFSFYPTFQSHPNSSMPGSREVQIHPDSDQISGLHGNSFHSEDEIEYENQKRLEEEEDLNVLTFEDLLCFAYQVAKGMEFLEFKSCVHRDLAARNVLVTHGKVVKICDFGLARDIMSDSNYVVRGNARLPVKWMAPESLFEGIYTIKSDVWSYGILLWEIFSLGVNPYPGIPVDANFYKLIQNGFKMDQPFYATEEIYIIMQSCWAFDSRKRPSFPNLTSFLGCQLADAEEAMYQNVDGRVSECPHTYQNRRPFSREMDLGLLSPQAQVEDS

C[C@@H]1CN(c2cc(-c3n[nH]c4ccc(OC5(C)CC5)cc34)ncn2)C[C@H](C)O1 [MLi-2]
inactive: [1] 7% | [2] 2.53% | [3] 1.29% | [4] 2% | [5] 11.9% | [6] 7.83% | [7] 9.35% | [8] 9% | [9] -9% | [10] -6% | [11] 9% | [12] -1.02% | [13] 8% | [14] -0.455% | [15] -0.743% | [16] 8.71%
